Results: patent publication US10556865B2, “Synergistic herbicidal composition containing certain pyridine or pyrimidine carboxylic acids and certain cereal and rice herbicides” (Dow AgroSciences, LLC, priority 2007, dated 2020)
“And” between values parts separate entries of the source, which are not always exact repeats. Equal entries are not always repeated.

Assays:
Assay type in all cases: in vivo
[1] = system: scented mayweed (Matricaria chamomila L; MATCH); experiment: Postemergence herbicidal activity of mixtures in cereal crops (greenhouse, visual injury)
Procedure: (§1) The plants were grown for 7-36 days in a greenhouse with an approximate 14 hour photoperiod which was maintained at about 18° C. during the day and 17° C. during the night. Nutrients and water were added on a regular basis and supplemental lighting was provided with overhead metal halide 1000-Watt lamps as necessary. The plants were employed for testing when they reached the second or third true leaf stage.
(§2) Treatments consisted of compound (as listed in Tables 1 through 64) and a second cereal herbicide alone and in combination. […] Control plants were sprayed in the same manner with the solvent blank.
(§3) The treated plants and control plants were placed in a greenhouse as described above and watered by sub-irrigation to prevent wash-off of the test compounds. After 20-22 days, the condition of the test plants as compared with that of the control plants was determined visually and scored on a scale of 0 to 100 percent where 0 corresponds to no injury and 100 corresponds to complete kill.
(§4) The following equation was used to calculate the expected activity of mixtures containing two active ingredients, A and B: Expected=A+B−(A×B/100)

[2] = system: wild pansy (Viola tricolor L; VIOTR); experiment: as above
Procedure: as §1, §2, §3, §4

[3] = system: bird's-eye speedwell (Veronica persica L; VERPE); experiment: as above
Procedure: as §1, §2, §3, §4

[4] = system: cut-leaf geranium (Geranium dissectum L; GERDI); experiment: as above
Procedure: (§5) Seeds of the desired test plant species were planted in Sun Gro MetroMix® 306 planting mixture, which typically has a pH of 6.0 to 6.8 and an organic matter content of about 30 percent, in plastic pots with a surface area of 103.2 square centimeters (cm^2). When required to ensure good germination and healthy plants, a fungicide treatment and/or other chemical or physical treatment was applied. The plants were grown for 7-36 days in a greenhouse with an approximate 14 hour photoperiod which was maintained at about 18° C. during the day and 17° C. during the night. Nutrients and water were added on a regular basis and supplemental lighting was provided with overhead metal halide 1000-Watt lamps as necessary. The plants were employed for testing when they reached the second or third true leaf stage.
(§6) Treatments consisted of compound (as listed in Tables 1 through 64) and a second cereal herbicide alone and in combination. Weighed amounts of esters (methyl) or salts (TEA [triethylammonium], K [potassium]) of 4-amino-3-chloro -6-(4-chloro-2-fluoro-3-methoxyphenyl)pyridine-2-carboxylic acid (Compound A) or of 6-amino-5-chloro-2-(4-chloro-2-fluoro-3-methoxyphenyl)pyrimidine-4-carboxylic acid (Compound B), were placed in 25 milliliter (mL) glass vials and dissolved in a volume of 97:3 v/v acetone/DMSO to obtain 4.5 milligrams (mg) active ingredient (ai)/mL stock solutions. […] The concentrated stock solutions were diluted to 1.5 mg ai/mL with the addition of 2 volumes of an aqueous mixture containing acetone, water, isopropyl alcohol, DMSO, Agri-dex crop oil concentrate, and Triton® X-77 surfactant in a 64.7:26.0:6.7:2.0:0.7:0.01 v/v ratio. A dilution solution was prepared by mixing 1 volume of 97:3 v/v acetone/DMSO and 2 volumes of an aqueous mixture containing acetone, water, isopropyl alcohol, DMSO, Agri-dex crop oil concentrate, and Triton® X-77 surfactant in a 64.7:26.0:6.7:2.0:0.7:0.01 v/v ratio. Compound requirements are based upon a 12 mL application volume at a rate of 187 liters per hectare (L/ha). Spray solutions of the second cereal herbicide and experimental compound mixtures were prepared by adding the stock solutions to the appropriate amount of dilution solution to form 12 mL spray solution with active ingredients in two- and three-way combinations. Formulated compounds were applied to the plant material with an overhead Mandel track sprayer equipped with 8002E nozzles calibrated to deliver 187 L/ha over an application area of 0.503 square meters (m^2) at a spray height of 18 inches (43 cm) above average plant canopy. Control plants were sprayed in the same manner with the solvent blank.
as §3
(§7) Colby's equation was used to determine the herbicidal effects expected from the mixtures (Colby, S. R. 1967. Calculation of the synergistic and antagonistic response of herbicide combinations. Weeds 15:20-22.).
as §4

[5] = system: black mustard (Brassica nigra L; BRSNI); experiment: as above
Procedure: as §5, §6, §3, §7, §4

[6] = system: kochia (Kochia scoparia L; KCHSC); experiment: as above
Procedure: as §5, §6, §3, §7, §4

[7] = system: Russian thistle (Salsola iberica L; SASKR); experiment: as above
Procedure: as §5, §6, §3, §7, §4

[8] = system: wild buckwheat (Polygonum convolvulus L; POLCO); experiment: as above
Procedure: as §5, §6, §3, §7, §4

[9] = system: chickweed (Stellaria media L; STEME); experiment: as above
Procedure: as §5, §6, §3, §7, §4

[10] = system: Canada thistle (Cirsium arvense L; CIRAR); experiment: as above
Procedure: as §1, §2, §3, §4

[11] = system: rigid ryegrass (Lolium rigidum L; LOLRI); experiment: as above
Procedure: as §5, §6, §3, §7, §4

[12] = system: Ischaemum rugosum SALISB. (ISCRU); experiment: Postemergence herbicidal mixtures for weed control in direct seeded rice (greenhouse, visual % injury)
[13] = system: blackgrass (Alopecurus myosuroides L; ALOMY); experiment: Postemergence herbicidal activity of mixtures in cereal crops (greenhouse, visual injury 0-100 percent after 20-22 days); details: 8.75 g/ha, Table 19
Procedure: as §5, with “When required to ensure good germination and healthy plants, a fungicide treatment and/or other chemical or physical treatment was applied.” left out
Treatments consisted of compound (as listed in Tables 1 through 64) and a second cereal herbicide alone and in combination. […] The concentrated stock solutions were diluted to 1.5 mg ai/mL with the addition of 2 volumes of an aqueous mixture containing acetone, water, isopropyl alcohol, DMSO, Agri-dex crop oil concentrate, and Triton® X-77 surfactant in a 64.7:26.0:6.7:2.0:0.7:0.01 v/v ratio. A dilution solution was prepared by mixing 1 volume of 97:3 v/v acetone/DMSO and 2 volumes of an aqueous mixture containing acetone, water, isopropyl alcohol, DMSO, Agri-dex crop oil concentrate, and Triton® X-77 surfactant in a 64.7:26.0:6.7:2.0:0.7:0.01 v/v ratio. Compound requirements are based upon a 12 mL application volume at a rate of 187 liters per hectare (L/ha). […] Formulated compounds were applied to the plant material with an overhead Mandel track sprayer equipped with 8002E nozzles calibrated to deliver 187 L/ha over an application area of 0.503 square meters (m^2) at a spray height of 18 inches […] above average plant canopy. Control plants were sprayed in the same manner with the solvent blank.
as §3, §7, §4

Nc1cc(Cl)nc(C(=O)O)c1Cl [Aminopyralid]
MATCH Ob ([1]; 2.5 g/ha alone): 10% and 8% | VIOTR Ob ([2]; 2.5 g/ha alone): 27% | VERPE Ob ([3]; 2.5 g/ha alone): 0% | GERDI Ob ([4]; 2.5 g/ha alone): 0% | BRSNI Ob ([5]; 2.5 g/ha alone): 0% | KCHSC Ob ([6]; 2.5 g/ha alone): 0% | SASKR Ob ([7]; 2.5 g/ha alone): 18%

CCC(Oc1ccc(F)c(C(F)(F)F)c1)C(=O)NCc1ccccc1 (stereo not shown) [Beflubutamid]
VIOTR Ob ([2]; 35 g/ha): 15% | VIOTR Ob ([2]; 70 g/ha): 23% | VERPE Ob ([3]; 35 g/ha): 15% | VERPE Ob ([3]; 70 g/ha): 23% | GERDI Ob ([4]; 35 g/ha): 0% | GERDI Ob ([4]; 70 g/ha): 0% | BRSNI Ob ([5]; 35 g/ha): 30% | BRSNI Ob ([5]; 70 g/ha): 30% | POLCO Ob ([8]; 35 g/ha): 10% | POLCO Ob ([8]; 70 g/ha): 20% | STEME Ob ([9]; 35 g/ha): 10% | STEME Ob ([9]; 70 g/ha): 10%

C[N+](C)(C)CCCl [Chlormequat]
MATCH Ob ([1]; 155 g/ha alone): 0% | GERDI Ob ([4]; 155 g/ha alone): 0% | BRSNI Ob ([5]; 155 g/ha alone): 0% | KCHSC Ob ([6]; 155 g/ha alone): 0% | POLCO Ob ([8]; 155 g/ha alone): 10% | STEME Ob ([9]; 155 g/ha alone): 0%

COc1c(Cl)ccc(-c2cc(N)c(Cl)c(C(=O)[O-])n2)c1F.[K+] [Compound A K-salt]
MATCH Ob ([1]; 8.75 g/ha alone): 50% | MATCH Ob ([1]; 17.5 g/ha alone): 62% | MATCH Ob ([1]; 35 g/ha alone): 57% | MATCH Ob ([1]; alone 8.75 g/ha): 50% | MATCH Ob ([1]; alone 17.5 g/ha): 62% | MATCH Ob ([1]; alone 35 g/ha): 57% | VIOTR Ob ([2]; 8.75 g/ha alone): 20% | VIOTR Ob ([2]; 17.5 g/ha alone): 48% | VIOTR Ob ([2]; 35 g/ha alone): 42% | VERPE Ob ([3]; 8.75 g/ha alone): 73% | VERPE Ob ([3]; 17.5 g/ha alone): 78% | VERPE Ob ([3]; 35 g/ha alone): 83% | VERPE Ob ([3]; alone 8.75 g/ha): 73% | VERPE Ob ([3]; alone 17.5 g/ha): 78% | VERPE Ob ([3]; alone 35 g/ha): 83% | KCHSC Ob ([6]; 8.75 g/ha alone): 67% | KCHSC Ob ([6]; 17.5 g/ha alone): 77% | KCHSC Ob ([6]; 35 g/ha alone): 90% | KCHSC Ob ([6]; alone 8.75 g/ha): 67% | KCHSC Ob ([6]; alone 17.5 g/ha): 77% | KCHSC Ob ([6]; alone 35 g/ha): 90% | SASKR Ob ([7]; 8.75 g/ha alone): 63% | SASKR Ob ([7]; 17.5 g/ha alone): 67% | SASKR Ob ([7]; 35 g/ha alone): 73%

COc1cc(OC)nc(NC(=O)NS(=O)(=O)c2nc(C(F)(F)F)ccc2C(=O)O)n1 [Flupyrsulfuron, 2-[[[[(4,6-dimethoxy-2-pyrimidinyl)amino]carbonyl]amino]sulfonyl]-6-(trifluoromethyl)-3-pyridinecarboxylic acid, reference compound]
CIRAR Ob ([10]; 5 g/ha): 20% | pest or weed control at 5 g/ha ([2]; Viola tricolor, post-emergence, read-out: VIOTR Ob): 0% | VERPE Ob ([3]; 5 g/ha): 0% | pest or weed control at 5 g/ha ([3]; Veronica persica, post-emergence, read-out: VERPE Ob): 0% | LOLRI Ob ([11]; 5 g/ha, Table 12): 0%

COCc1cnc(C2=NC(C)(C(C)C)C(=O)N2)c(C(=O)O)c1 (stereo not shown) [Imazamox]
% Injury ISCRU Ob ([12]; alone 22.4 g/ha): 50%

CCc1cnc(C2=NC(C)(C(C)C)C(=O)N2)c(C(=O)O)c1 (stereo not shown) [Imazethapyr]
% Injury ISCRU Ob ([12]; alone 35 g/ha): 20%

CC(C)c1ccc(NC(=O)N(C)C)cc1 [Isoproturon]
pest or weed control at 300 g/ha ([2]; Viola tricolor, post-emergence, 300 g/ha alone, read-out: VIOTR Ob): 0% | pest or weed control at 300 g/ha ([5]; Brassica, post-emergence, 300 g/ha alone, read-out: BRSNI Ob): 40% | KCHSC Ob ([6]; 300 g/ha alone): 50% | SASKR Ob ([7]; 300 g/ha alone): 33%

CCCN(CCC)C(=O)SCc1ccccc1 [Prosulfocarb]
pest or weed control at 500 g/ha ([1]; Matricaria, post-emergence, 500 g/ha alone, read-out: MATCH Ob): 0% | SASKR Ob ([7]; 500 g/ha alone): 0% | pest or weed control at 500 g/ha ([9]; Stellaria media, post-emergence, 500 g/ha alone, read-out: STEME Ob): 0%

CCS(=O)(=O)c1nc2ccccn2c1S(=O)(=O)NC(=O)Nc1nc(OC)cc(OC)n1 [Sulfosulfuron, N-[[(4,6-dimethoxy-2-pyrimidinyl)amino]carbonyl]-2-(ethylsulfonyl)imidazo[1,2-a]pyridine-3-sulfonamide, reference compound]
ALOMY Ob [13]: 85% | CIRAR Ob ([10]; 8.75 g/ha): 10% | pest or weed control at 8.75 g/ha ([3]; Veronica persica, post-emergence, 8.75 g/ha, read-out: VERPE Ob): 30% | LOLRI ([11]; 8.75 g/ha, Table 19): 10%
